Reference: article PMC12295927, “Design, Synthesis, and Testing of 1,2,3-Triazolo-Quinobenzothiazine Hybrids for Cytotoxic and Immunomodulatory Activity” (International Journal of Molecular Sciences, 2025)

Key:
IL8 gene = assay: RT-qPCR IL8 gene expression in BEAS-2B; format: cell-based; settings: Homo sapiens, 24 h, reference gene RPL41, vs untreated control, read-out: Relative level of expression, IL8 gene
Protocol: (§1) Real-time polymerase chain reaction was performed for the reference gene RPL41 (ribosomal protein L41) and the tested genes: BCL2, AIFM2, MDM2, IL6 and IL8. […] The BEAS-2B line was selected for the experiment. The expression level of selected genes was measured after 24 h of incubation with the tested substances MJ1–MJ20 at a concentration of 100 μM (Table 3).
(§2) The RT-qPCR experiment was performed for the BEAS-2B cell line. In this experiment, the IL6 and IL8 genes were studied and RPL41 was used as a reference gene (Figure 17 and Figure 18).
(§3) Gene expression studies used quantitative RT-qPCR to assess the effect of the tested quinobenzothiazines (MJ1–MJ20) on the expression of apoptosis-related genes (BCL2, AIFM2, MDM2) and pro-inflammatory cytokines (IL6, IL8) (Table 4).
(§4) BEAS-2B and HCT116 cells were seeded in 6-well plates at 2 × 10^5 cells per well and cultured in RPMI-1640 (BEAS-2B) or DMEM (HCT116) medium supplemented with 10% FBS and 1% penicillin/streptomycin at 37 °C, 5% CO2 and 95% humidity. After 24 h of incubation, the tested compounds were added at a concentration of 100 µM. After 24 h, the medium was removed from the cells, washed with PBS solution, 0.5 mL of trypsin was added per well and after 5 min it was neutralized with medium. The obtained cell suspension was centrifuged for 3 min at 2000 rpm, the supernatant was removed, and the obtained pellet was suspended in 400 µL of phenozol. Samples were frozen at −20 °C and stored until further experiment and RNA isolation.
(§5) Total RNA was isolated from cells using the A&A Biotechnology Total RNA Mini kit according to the manufacturer’s protocol. RNA quality and quantity were assessed using a NanoDrop 2000 spectrophotometer at 260/280 nm. Reverse transcription was performed using the protocol (EURx NG dART RT Kit) to obtain cDNA. After incubation, samples were placed in a freezer (−20 °C) and stored until further analysis.
(§6) The experiment was performed according to the protocol (Brilliant III Ultra Fast SYBR® Green QPCR Master Mix, Quick Reference Guide for the Bio-Rad CFX96 Real-Time PCR Detection System). RT-qPCR reaction was performed using specific primers for target genes (BCL2, AIFM2, MDM2, IL6, IL8). Gene expression was normalized to the expression of the reference gene RPL41. Reaction profiles and results were performed using Bio-Rad CFX Maestro 1.1 software from Bio-Rad. Analysis and calculations of the results obtained during RT-qPCR were performed using Microsoft Excel.
(§7) The results were analyzed using the R = 2^−ΔΔCt method, which allows for determining the relative level of gene expression (R) compared to the control. Each experiment was performed in three technical and biological replicates. RT-qPCR allowed for precise assessment of changes in the expression of genes related to the processes of apoptosis and inflammatory response under the influence of quinobenzothiazines, which allowed for identifying their potential mechanisms of action at the molecular level.

AIFM2 gene = assay: RT-qPCR AIFM2 gene expression in BEAS-2B; format: cell-based, Human; settings: 24 h; for AIFM2 expression increase: 100 μM, compared to control; for fold induction at 100 µM: Homo sapiens, reference gene RPL41, vs untreated control, read-out: Relative level of expression, AIFM2 gene
Protocol: as §1
The RT-qPCR experiment was performed for the BEAS-2B cell line. In this experiment, the AIFM2 gene was studied and RPL41 was used as reference gene (Figure 16).
as §3, §4, §5, §6, §7

IL6 gene = assay: RT-qPCR IL6 gene expression in BEAS-2B; format: cell-based, Human; settings: 24 h; for fold induction at 100 µM: Homo sapiens, reference gene RPL41, vs untreated control, read-out: Relative level of expression, IL6 gene
Protocol: as §1, §2, §3, §4, §5, §6, §7

HCT116 cells = assay: DAPI staining for nuclear morphology and apoptosis, HCT116; format: cell-based, Human; settings: HCT116, 100 μM, 24 h
Protocol: The BEAS-2B, NHDF, HCT116, MCF7, SH-SY5Y, A549 cell lines studied were cultured in DMEM medium supplemented with 10% fetal bovine serum (FBS) and 1% penicillin/streptomycin solution. Cells were seeded at 1 × 10^4 per well in 96-well plates and incubated for 24 h under standard culture conditions: temperature 37 °C, 5% CO2, 95% humidity. After 24 h, compounds from the MJ1–MJ20 group were added to individual wells at different concentrations (6.25 µM, 12.5 µM, 25 µM, 50 µM, 100 µM). The control consisted of cells grown only in medium without the addition of chemical compounds. After 24 h of incubation, cells were observed under a microscope (JuLI™ FL Live fluorescence microscope from NanoEntek, Martinsried, Germany), documenting morphological changes. Observations included visual assessments of confluence, cell shape, arrangement, and interaction with the substrate. The Supplementary Materials include a comprehensive collection of microscopic images showing the morphology of the tested cell lines (BEAS-2B, NHDF, HCT116, MCF7, SH-SY5Y, A549) after 24 h of incubation with compounds MJ1–MJ20. These images illustrate the effects of the compounds on cell shape, density, and adhesion. The images are provided as a separate PDF file for further reference. For apoptosis observations, the samples of BEAS-2B and HCT116 cells were additionally fixed with 4% paraformaldehyde (PFA) after 24 h of incubation with, or without selected compounds (Section 2.6) and DAPI stained for apoptotic bodies visualization (Fluoromount-G™ medium with DAPI dye; Thermo Fisher Scientific, Waltham, MA, USA). The samples were visualized using fluorescent microscopy AXIO IMAGER M1 by ZEISS, DAPI channel and 20x magnification. The percent of counted cells with apoptotic nucleus was defined in comparison to all visualized events.
BEAS-2B and HCT116 cells were seeded into culture plates at 5 × 10^3 cells per well using 0.5 mL of RPMI-1640 medium (for BEAS-2B) or DMEM (for HCT116). The plates were incubated for 24 h at 37 °C in an atmosphere containing 5% CO2. After incubation, the medium was removed and compounds MJ2, MJ8, MJ15, and MJ19 were added in the appropriate medium at a concentration of 100 μM. The plates were incubated for 24 h at 37 °C in an atmosphere containing 5% CO2. After incubation, the medium was removed, and 500 µL of 4% paraformaldehyde (PFA) was added to each well to fix the cells. Incubation continued for 10 min at room temperature. After removal of the PFA, the wells were rinsed with 500 µL of PBS (5 min of incubation) and then with distilled water. The cells were allowed to dry at room temperature. After drying, the cells were stained with DAPI. Observations were made using a fluorescence microscope AXIO IMAGER M1 by ZEISS at 20x magnification.

| Compound | fold induction at 100 µM (IL8 gene) | AIFM2 expression increase (AIFM2 gene) | fold induction at 100 µM (AIFM2 gene) | IL6 expression increase (IL6 gene; 100 μM, compared to control) | fold induction at 100 µM (IL6 gene) | Apoptotic changes in cell nuclei (DAPI) (HCT116 cells) |
| --- | --- | --- | --- | --- | --- | --- |
| CSc1ccc2c(c1)Sc1cc3ccccc3nc1N2Cc1cn(Cc2ccc(C#N)cc2)nn1 [MJ19, 4-((4-((9-Methylthioquino[3,2-b]benzo[1,4]thiazin-6-yl)methyl)-1H-1,2,3-triazol-1-yl)methyl)benzonitrile] | 12.8 | 14.9 fold | 14.9 | 57.2 fold | 57.2 | no significant apoptotic changes |
| Fc1ccc2c(c1)Sc1cc3ccccc3nc1N2Cc1cn(Cc2ccc(Cl)cc2)nn1 [MJ8, 9-Fluoro-6-[(1-(4-chlorobenzyl)-1H-1,2,3-triazol-4-yl)methyl]-quino[3,2-b]benzo-[1,4]thiazine] | 4 |  | 4.2 |  | 9.9 | no significant apoptotic changes |
| Fc1ccc(Cn2cc(CN3c4ccccc4Sc4cc5ccccc5nc43)nn2)cc1 [MJ2, 6-((1-(4-Fluorobenzyl)-1H-1,2,3-triazol-4-yl)methyl)-quino[3,2-b]benzo[1,4]thiazine] | 0.4 | 11.4 fold | 11.4 |  | 1.7 | no significant apoptotic changes |
| Clc1ccc2c(c1)Sc1cc3ccccc3nc1N2Cc1cn(CSc2ccccc2)nn1 [MJ15, 9-Chloro-6-((1-((phenylthio)methyl)-1H-1,2,3-triazol-4-yl)methyl)-quino[3,2-b]benzo[1,4]thiazine] | 5 |  | 2.6 |  | 13 | no significant apoptotic changes |
